Patent US8324258B2, “F1F0-ATPase inhibitors and related methods” (The Regents of the University of Michigan, priority 2007, dated 2012)

Experiments:
F1F0-ATPase [1] = biological target: T1, F1F0-ATPase (Bos taurus, UniProt P13621); assay: Inhibition of ATP synthesis by the F1F0-ATPase; format: biochemical; conditions: for ATP Synthesis (IC40 μM): IC40: concentration for 40% inhibition
Protocol: (§1) The compounds listed in Table 9 were tested for activity against F1F0-ATPase by measuring ATP synthesis and ATP hydrolysis. In addition, the compounds were assessed for cytotoxicity in Ramos cells Inhibition of ATP synthesis and hydrolysis by the F1F0-ATPase and cytotoxicity in Ramos cells was measured as described in K. M. Johnson et al. Chemistry & Biology 2005, 12, 485-496.

Ramos cells = assay: Cytotoxicity (cell death) in Ramos cells; format: cell-based
Protocol: as §1

F1F0-ATPase [2] = biological target: T1, F1F0-ATPase; assay: Inhibition of ATP hydrolysis by the F1F0-ATPase; format: biochemical; conditions: for ATP Hydrolysis (IC40 μM): IC40: concentration for 40% inhibition
Protocol: as §1

Row | Compound | ATP Synthesis (IC40 μM) (F1F0-ATPase [1]) [µM] | EC50 (Ramos cells; Ramos cells) [µM] | ATP Hydrolysis (IC40 μM) (F1F0-ATPase [2]) [µM] | EC50 (Ramos cells; Homo sapiens, Ramos) [µM] | syn (relative to Bz-423) (F1F0-ATPase [1]; ATP synthesis, multiple of Bz-423) [×Bz-423] | Ramos cell death (relative to Bz-423) (Ramos cells; Ramos cells, multiple of Bz-423) [×Bz-423] | hydro (relative to Bz-423) (F1F0-ATPase [2]; ATP hydrolysis, multiple of Bz-423) [×Bz-423]
1 | O=C(N=C(NCCc1c[nH]cn1)Nc1ccc(-c2ccccc2)cc1)c1ccc(Cl)cc1 [II-1, (Z/E)-N-((2-(1H-imidazol-4-yl)ethylamino)(biphenyl-4-ylamino)methylene)-4-chlorobenzamide] | >10 | > 30 | >10 |  |  |  | 
2 | O=C(N=C(NCCc1c[nH]cn1)Nc1ccc(-c2ccccc2)cc1)c1cccc([N+](=O)[O-])c1 [II-12, (Z/E)-N-((2-(1H-imidazol-4-yl)ethylamino)(biphenyl-4-ylamino)methylene)-3-nitrobenzamide] | >10 | > 30 | >10 |  |  |  | 
3 | O=C(N=C(NCCc1c[nH]cn1)Nc1cccc(C(F)(F)F)c1)c1cccc(Cl)c1 [III-24, (Z/E)-N-((2-(1H-imidazol-4-yl)ethylamino)(3-(trifluoromethyl)phenylamino)methylene)-3-chlorobenzamide] | <10 | > 10 | <10 |  |  |  | 
4 | O=C(N=C(NCCc1c[nH]cn1)Nc1ccc(-c2ccccc2)cc1)c1cccc(Cl)c1 [III-7, (Z/E)-N-((2-(1H-imidazol-4-yl)ethylamino)(biphenyl-4-ylamino)methylene)-3-chlorobenzamide] | <10 | < 10 | >10 |  |  |  | 
5 | O=C(N=C(NCCc1c[nH]cn1)Nc1ccc(-c2ccccc2)cc1)c1cccc(C(F)(F)F)c1 [II-4, (Z/E)-N-((2-(1H-imidazol-4-yl)ethylamino)(biphenyl-4-ylamino)methylene)-3-(trifluoromethyl)benzamide] | >10 | < 10 | >10 |  |  |  | 
6 | O=C(N=C(NCCc1c[nH]cn1)Nc1ccc(Br)cc1)c1cccc(Cl)c1 [III-20, (Z/E)-N-((2-(1H-imidazol-4-yl)ethylamino)(4-bromophenylamino)methylene)-3-chlorobenzamide] | >10 | > 10 | >10 |  |  |  | 
7 | CCc1ccccc1NC(=NC(=O)c1cccc(Cl)c1)NCCc1c[nH]cn1 [III-41] | >10 | > 30 | >10 |  |  |  | 
8 | O=C(N=C(NCCc1c[nH]cn1)Nc1cccc(F)c1)c1cccc(Cl)c1 [III-15, (Z/E)-N-((2-(1H-imidazol-4-yl)ethylamino)(3-fluorophenylamino)methylene)-3-chlorobenzamide] | >20 | > 30 | >30 |  |  |  | 
9 | Cc1ccc(C(=O)N=C(NCCc2c[nH]cn2)Nc2ccc(-c3ccccc3)cc2)cc1 [II-3, (Z/E)-N-((2-(1H-imidazol-4-yl)ethylamino)(biphenyl-4-ylamino)methylene)-4-methylbenzamide] | >10 | < 10 | >10 |  |  |  | 
10 | O=C(N=C(NCCc1c[nH]cn1)Nc1cccc2ccccc12)c1cccc(Cl)c1 [III-27, (Z/E)-N-((2-(1H-imidazol-4-yl)ethylamino)(naphthalen-1-ylamino)methylene)-3-chlorobenzamide] | <10 | > 10 | >10 |  |  |  | 
11 | O=C(N=C(NCCc1c[nH]cn1)Nc1cccc(-c2ccccc2)c1)c1cccc(Br)c1 [VI-10, (Z/E)-N-((2-(1H-imidazol-4-yl)ethylamino)(biphenyl-3-ylamino)methylene)-3-bromobenzamide] | <10 | < 10 | >10 |  |  |  | 
12 | O=C(N=C(NCCc1c[nH]cn1)Nc1ccccc1-c1ccccc1)c1ccccc1 [Compound I-7, (Z/E)-N-((2-(1H-imidazol-4-yl)ethylamino)(biphenyl-2-ylamino)methylene)benzamide] | >20 | > 30 | >30 |  |  |  | 
13 | O=C(/N=C(/NCc1cccc2[nH]ccc12)Nc1ccc(-c2ccccc2)cc1)c1cccc(Cl)c1 [IV-9] | >20 |  | >30 | > 30 |  |  | 
14 | O=C(N=C(NCCc1c[nH]cn1)Nc1ccc(-c2ccc(Cl)cc2)cc1)c1cccc(Cl)c1 [III-29, (Z/E)-N-((2-(1H-imidazol-4-yl)ethylamino)(4′-chlorobiphenyl-4-ylamino)methylene)-3-chlorobenzamide] | >10 | < 10 | >10 |  |  |  | 
15 | O=C(N=C(NCCc1c[nH]cn1)Nc1ccccc1Cl)c1cccc(Cl)c1 [III-17, (Z/E)-N-((2-(1H-imidazol-4-yl)ethylamino)(2-chlorophenylamino)methylene)-3-chlorobenzamide] | >10 | > 30 | >20 |  |  |  | 
16 | O=C(N=C(NCCc1c[nH]cn1)Nc1cccc(-c2ccccc2)c1)c1cccc(F)c1 [VI-7, (Z/E)-N-((2-(1H-imidazol-4-yl)ethylamino)(biphenyl-3-ylamino)methylene)-3-fluorobenzamide] | <10 | > 10 | >10 |  |  |  | 
17 | COc1ccc(NC(=NC(=O)c2cccc(Cl)c2)NCCc2c[nH]cn2)cc1 [III-13, (Z/E)-N-((2-(1H-imidazol-4-yl)ethylamino)(4-methoxyphenylamino)methylene)-3-chlorobenzamide] | >10 | > 30 | >30 |  |  |  | 
18 | O=C(/N=C(/NCCc1c[nH]cn1)Nc1ccc2[nH]ccc2c1)c1cccc(Cl)c1 [Compound V-2, (Z/E)-N-((2-(1H-imidazol-4-yl)ethylamino)(1H-indol-5-ylamino)methylene)-3-chlorobenzamide] | >10 |  | >20 | > 20 |  |  | 
19 | O=C(N=C(NCCc1c[nH]cn1)Nc1ccc(-c2ccccc2)cc1)c1ccc(Cl)c(Cl)c1 [II-16, (Z/E)-N-((2-(1H-imidazol-4-yl)ethylamino)(biphenyl-4-ylamino)methylene)-3,4-dichlorobenzamide] | <10 | < 10 | <10 |  |  |  | 
20 | Cc1cccc(C(=O)N=C(NCCc2c[nH]cn2)Nc2ccccc2-c2ccccc2)c1 [Compound I-4, (E/Z)—N-((2-(1H-imidazol-4-yl)ethylamino)(biphenyl-2-ylamino)methylene)-3-methylbenzamide] | >10 | > 20 | >20 |  |  |  | 
21 | O=C(/N=C(\Nc1ccc(-c2ccccc2)cc1)Nc1ccc2[nH]ccc2c1)c1cccc(Cl)c1 [IV-8, (Z/E)-N-((1H-indol-5-ylamino)(biphenyl-4-ylamino)methylene)-3-chlorobenzamide] | >10 |  | >30 | < 10 |  |  | 
22 | CS(=O)(=O)c1ccccc1NC(=NC(=O)c1cccc(Cl)c1)NCCc1cnc[nH]1 [III-38, (Z/E)-N-((2-(1H-imidazol-5-yl)ethylamino)(2-(methylsulfonyl)phenylamino)methylene)-3-chlorobenzamide] | >20 | > 30 | >30 |  |  |  | 
23 | O=C(N=C(NCCc1c[nH]cn1)Nc1ccc(-c2ccccc2)cc1)c1cccc(Br)c1 [II-10, (Z/E)-N-((2-(1H-imidazol-4-yl)ethylamino)(biphenyl-4-ylamino)methylene)-3-bromobenzamide] | >10 | < 10 | >10 |  |  |  | 
24 | CCc1cccc(CC)c1NC(=NC(=O)c1cccc(Cl)c1)NCCc1c[nH]cn1 [III-44, (Z/E)-N-((2-(1H-imidazol-4-yl)ethylamino)(2,6-diethylphenylamino)methylene)-3-chlorobenzamide] |  |  |  |  | 0.7 | 2.5 | 0.8
25 | CN(C)S(=O)(=O)c1cccc(NC(=NC(=O)c2cccc(Cl)c2)NCCc2cnc[nH]2)c1 [III-40, (Z/E)-N-((2-(1H-imidazol-5-yl)ethylamino)(3-(N,N-dimethylsulfamoyl)phenylamino)methylene)-3-chlorobenzamide] | >20 | > 30 | >30 |  |  |  | 
26 | O=C(N=C(NCCc1c[nH]cn1)Nc1cccc(-c2ccccc2)c1)c1ccc(F)cc1 [VI-8, (Z/E)-N-((2-(1H-imidazol-4-yl)ethylamino)(biphenyl-3-ylamino)methylene)-4-fluorobenzamide] | <10 | > 10 | >10 |  |  |  | 
